In ChEMBL document CHEMBL1201862, “PubChem BioAssay data set” (2004):
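Values below derive from 48-hour exposures of cells grown in 96-well plates, with endpoints linearly interpolated between the two concentrations bracketing the appropriate inhibition level. GI50 marks 50% less growth.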 Calls of active or inactive are those of the source. No stated cut-off is given here; in the data, active = GI50 up to about 1.1 µM and inactive = higher.

Columns and labels:
Assay in all cases: NCI-60 cell line screen, 48 h
SNB-75 = system: SNB-75
HOP-62 = system: HOP-62
SK-OV-3 = system: SK-OV-3
MDA-MB-231 = system: MDA-MB-231
SK-MEL-2 = system: SK-MEL-2
SF-539 = system: SF-539
LOX IMVI = system: LOX IMVI
OVCAR-8 = system: OVCAR-8
ACHN = system: ACHN
Malme-3M = system: Malme-3M
NCI/ADR-RES = system: NCI/ADR-RES
786-0 = system: 786-0
BT-549 = system: BT-549
NCI-H226 = system: NCI-H226
RXF 393 = system: RXF 393
TK-10 = system: TK-10
UO-31 = system: UO-31
NCI-H460 = system: NCI-H460
KM12 = system: KM12
M14 = system: M14
MCF7 = system: MCF7
COLO 205 = system: COLO 205
PC-3 = system: PC-3
MOLT-4 = system: MOLT-4
HOP-92 = system: HOP-92
HCT-116 = system: HCT-116
U-251 = system: U-251
SK-MEL-28 = system: SK-MEL-28
CAKI-1 = system: CAKI-1
OVCAR-5 = system: OVCAR-5
HCC 2998 = system: HCC 2998
SW-620 = system: SW-620
RPMI-8226 = system: RPMI-8226
OVCAR-4 = system: OVCAR-4
K562 = system: K562
SNB-19 = system: SNB-19
HCT-15 = system: HCT-15
CCRF-CEM = system: CCRF-CEM
MDA-MB-435 = system: MDA-MB-435
OVCAR-3 = system: OVCAR-3
NCI-H522 = system: NCI-H522
SN12C = system: SN12C
NCI-H23 = system: NCI-H23
EKVX = system: EKVX
SF-295 = system: SF-295
SK-MEL-5 = system: SK-MEL-5
A498 = system: A498
SF-268 = system: SF-268
MDA-N = system: MDA-N
A549 = system: A549
IGROV-1 = system: IGROV-1
T47D = system: T47D
UACC-257 = system: UACC-257
DU-145 = system: DU-145
SR = system: SR
HL-60 = system: HL-60
UACC-62 = system: UACC-62
Hs-578T = system: Hs-578T
HT-29 = system: HT-29

With `COP(=O)(OC)OCN(C)CC/C=C(\C)CC/C=C(\C)CCC=C(C)C` the GI50 (SNB-75) was 14.8 µM (inactive), the GI50 (HOP-62) was 16.1 µM (inactive) and the GI50 (SK-OV-3) was 28.5 µM (inactive). The GI50 (MDA-MB-231) was 20.2 µM (inactive), the GI50 (SK-MEL-2) was 14.9 µM (inactive) and the GI50 (SF-539) was 15.7 µM (inactive). For the same compound, the GI50 (LOX IMVI) was 15.8 µM (inactive), the GI50 (OVCAR-8) was 16 µM (inactive) and the GI50 (ACHN) was 22.8 µM (inactive). The GI50 (Malme-3M) was 14.9 µM (inactive), the GI50 (NCI/ADR-RES) was 13 µM (inactive) and the GI50 (786-0) was 15.1 µM (inactive). The GI50 (BT-549) was 16.4 µM (inactive), the GI50 (NCI-H226) was 15.4 µM (inactive) and the GI50 (RXF 393) was 16.9 µM (inactive). For the same compound, the GI50 (TK-10) was 10.3 µM (inactive), the GI50 (UO-31) was 14.1 µM (inactive) and the GI50 (NCI-H460) was 11.7 µM (inactive). The GI50 (KM12) was 15.2 µM (inactive), the GI50 (M14) was 14.5 µM (inactive) and the GI50 (MCF7) was 15.2 µM (inactive). For the same compound, the GI50 (COLO 205) was 16.9 µM (inactive), the GI50 (PC-3) was 7.57 µM (inactive) and the GI50 (MOLT-4) was 13.6 µM (inactive). The GI50 (HOP-92) was 17.6 µM (inactive), the GI50 (HCT-116) was 11.8 µM (inactive) and the GI50 (U-251) was 17.7 µM (inactive). For the same compound, the GI50 (SK-MEL-28) was 17.3 µM (inactive), the GI50 (CAKI-1) was 17.6 µM (inactive) and the GI50 (OVCAR-5) was 15.5 µM (inactive). The GI50 (HCC 2998) was 11.6 µM (inactive), the GI50 (SW-620) was 15.6 µM (inactive) and the GI50 (RPMI-8226) was 10.6 µM (inactive). For the same compound, the GI50 (OVCAR-4) was 31.3 µM (inactive), the GI50 (K562) was 6.21 µM (inactive) and the GI50 (SNB-19) was 10.4 µM (inactive). The GI50 (HCT-15) was 16 µM, the GI50 (CCRF-CEM) was 10.4 µM (inactive) and the GI50 (MDA-MB-435) was 18.5 µM (inactive). The GI50 (OVCAR-3) was 15.3 µM (inactive), the GI50 (NCI-H522) was 13.4 µM (inactive) and the GI50 (SN12C) was 15.6 µM (inactive). The GI50 (NCI-H23) was 17.2 µM (inactive), the GI50 (EKVX) was 29.2 µM (inactive) and the GI50 (SF-295) was 16.6 µM (inactive). The GI50 (SK-MEL-5) was 11.8 µM (inactive), the GI50 (A498) was > 100 µM (inactive) and the GI50 (SF-268) was 16.4 µM (inactive). The GI50 (MDA-N) was 14.9 µM (inactive), the GI50 (A549) was 16.9 µM (inactive) and the GI50 (IGROV-1) was 12.5 µM (inactive). The GI50 (T47D) was 16.4 µM (inactive) and the GI50 (UACC-257) was 5.02 µM (inactive).

In the case of `CC(=O)O[C@@H]1C(=O)N(c2ccccc2)[C@@H]1c1cc2ccccc2c2ccccc12`, the GI50 (HOP-62) is reported as 29.6 µM (inactive), the GI50 (SK-OV-3) is reported as 47.8 µM (inactive) and the GI50 (MDA-MB-231) is reported as 20.3 µM (inactive). The GI50 (SK-MEL-2) was 14.4 µM (inactive), the GI50 (DU-145) was 40.8 µM (inactive) and the GI50 (SF-539) was 25.4 µM (inactive). For the same compound, the GI50 (LOX IMVI) was 20 µM (inactive), the GI50 (OVCAR-8) was 24.5 µM (inactive) and the GI50 (SR) was 15.5 µM (inactive). The GI50 (ACHN) was 29.6 µM (inactive), the GI50 (Malme-3M) was 22.9 µM (inactive) and the GI50 (NCI/ADR-RES) was 33.9 µM (inactive). For the same compound, the GI50 (786-0) was 42.2 µM (inactive), the GI50 (NCI-H226) was 7.1 µM (inactive) and the GI50 (RXF 393) was 15 µM (inactive). The GI50 (TK-10) was 30.9 µM (inactive), the GI50 (UO-31) was 22.2 µM (inactive) and the GI50 (NCI-H460) was 31.4 µM (inactive). The GI50 (KM12) was 20.3 µM (inactive), the GI50 (M14) was 55.3 µM (inactive) and the GI50 (MCF7) was 34.2 µM (inactive). For the same compound, the GI50 (COLO 205) was 16.7 µM (inactive), the GI50 (PC-3) was 32.9 µM (inactive) and the GI50 (MOLT-4) was 12.3 µM (inactive). The GI50 (HOP-92) was 20.8 µM (inactive), the GI50 (HCT-116) was 27.5 µM (inactive) and the GI50 (U-251) was 43.1 µM (inactive). The GI50 (SK-MEL-28) was 56 µM (inactive), the GI50 (CAKI-1) was 5.25 µM (inactive) and the GI50 (HL-60) was 26.4 µM (inactive). For the same compound, the GI50 (OVCAR-5) was 50 µM (inactive), the GI50 (HCC 2998) was 25.7 µM (inactive) and the GI50 (RPMI-8226) was 21.3 µM (inactive). For the same compound, the GI50 (OVCAR-4) was 20.5 µM (inactive), the GI50 (K562) was 36.6 µM (inactive) and the GI50 (SNB-19) was 73.3 µM (inactive). The GI50 (HCT-15) was 33.1 µM, the GI50 (CCRF-CEM) was 25.6 µM (inactive) and the GI50 (MDA-MB-435) was 16.8 µM (inactive). For the same compound, the GI50 (OVCAR-3) was 23.2 µM (inactive), the GI50 (NCI-H522) was 3.01 µM (inactive) and the GI50 (SN12C) was 34.4 µM (inactive). For the same compound, the GI50 (NCI-H23) was 20.2 µM (inactive), the GI50 (EKVX) was 40.6 µM (inactive) and the GI50 (UACC-62) was 22.8 µM (inactive). The GI50 (Hs-578T) was 27.7 µM (inactive), the GI50 (SF-295) was 38 µM (inactive) and the GI50 (SK-MEL-5) was 23.2 µM (inactive). For the same compound, the GI50 (A498) was > 100 µM (inactive), the GI50 (SF-268) was 44.3 µM (inactive) and the GI50 (MDA-N) was 43 µM (inactive). For the same compound, the GI50 (A549) was 21.5 µM (inactive), the GI50 (IGROV-1) was 21.6 µM (inactive) and the GI50 (T47D) was 18.7 µM (inactive). For the same compound, the GI50 (HT-29) was 29 µM (inactive) and the GI50 (UACC-257) was 25.5 µM (inactive).

In the case of `NNc1c(C(N)=O)c2c(N)ncnc2n1C1OC(CO)C(O)C1O` (configuration not stated), the GI50 (HOP-62) is reported as 0.0196 µM (active), the GI50 (MDA-MB-231) is reported as 0.0255 µM (active) and the GI50 (DU-145) is reported as < 0.01 µM (active). For the same compound, the GI50 (LOX IMVI) was 0.0112 µM (active), the GI50 (SR) was < 0.01 µM (active) and the GI50 (ACHN) was 0.0107 µM (active). The GI50 (NCI-H226) was 0.0536 µM (active), the GI50 (MCF7) was 0.0171 µM (active) and the GI50 (COLO 205) was 0.0129 µM (active). The GI50 (HCT-116) was 0.0119 µM (active), the GI50 (SW-620) was < 0.01 µM (active) and the GI50 (K562) was 0.0451 µM (active). The GI50 (HCT-15) was 0.0175 µM, the GI50 (EKVX) was 0.078 µM (active) and the GI50 (SF-295) was 0.233 µM (active). The GI50 (MDA-N) was 0.0261 µM (active), the GI50 (T47D) was < 0.01 µM (active) and the GI50 (HT-29) was 0.0198 µM (active).
